Read-outs that look alike come from different tables or passages of the source.
What was measured:
Assay type in all cases: biochemical
MMP-13h = MMP-13h (Homo sapiens (Human), UniProt P45452); assay: Inhibition constant (Ki) on MMP-13h; conditions: human MMP-13
Procedure, shortened: (§1)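 Compounds are evaluated on human MMPs, and Ki is derived as set out in an earlier publication.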

MMP-2h = MMP-2h (Homo sapiens (Human), UniProt P08253); assay: Inhibition constant (Ki) on MMP-2h; conditions: human MMP-2
Procedure, shortened: as §1

MMP-8h = MMP-8h (Homo sapiens (Human), UniProt P22894); assay: Inhibition constant (Ki) on MMP-8h; conditions: human MMP-8
MMP-3h = MMP-3h (Homo sapiens (Human), UniProt P08254); assay: Inhibition constant (Ki) on MMP-3h; conditions: human MMP-3
Procedure, shortened: as §1

MMP-9h = MMP-9h (Homo sapiens (Human), UniProt P14780); assay: Inhibition constant (Ki) on MMP-9h; conditions: human MMP-9
Procedure, shortened: as §1

MMP-12h = MMP-12h (Homo sapiens (Human), UniProt P39900); assay: Inhibition constant (Ki) on MMP-12h; conditions: human MMP-12
MMP-10h = MMP-10h (Homo sapiens (Human), UniProt P09238); assay: Inhibition constant (Ki) on MMP-10h; conditions: human MMP-10
MMP-14h = MMP-14h (Homo sapiens (Human), UniProt P50281); assay: Inhibition constant (Ki) on MMP-14h; conditions: human MMP-14
Procedure, shortened: as §1

MMP-2h, sequence (P08253 110-660): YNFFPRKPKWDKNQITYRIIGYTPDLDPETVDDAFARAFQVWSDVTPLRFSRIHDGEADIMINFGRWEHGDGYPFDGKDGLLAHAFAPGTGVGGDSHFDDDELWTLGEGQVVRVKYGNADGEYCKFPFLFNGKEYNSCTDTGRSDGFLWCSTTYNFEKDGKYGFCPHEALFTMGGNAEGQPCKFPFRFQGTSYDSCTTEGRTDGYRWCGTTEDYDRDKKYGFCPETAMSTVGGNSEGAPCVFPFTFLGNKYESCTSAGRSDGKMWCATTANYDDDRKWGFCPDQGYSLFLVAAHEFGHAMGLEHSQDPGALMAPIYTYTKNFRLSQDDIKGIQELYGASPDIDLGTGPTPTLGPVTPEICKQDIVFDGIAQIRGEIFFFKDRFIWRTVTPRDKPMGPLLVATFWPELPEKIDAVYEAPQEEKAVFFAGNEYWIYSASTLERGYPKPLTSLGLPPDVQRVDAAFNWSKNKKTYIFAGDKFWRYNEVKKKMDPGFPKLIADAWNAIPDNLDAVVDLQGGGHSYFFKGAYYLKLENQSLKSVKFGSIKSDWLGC
MMP-3h, sequence (P08254 100-477): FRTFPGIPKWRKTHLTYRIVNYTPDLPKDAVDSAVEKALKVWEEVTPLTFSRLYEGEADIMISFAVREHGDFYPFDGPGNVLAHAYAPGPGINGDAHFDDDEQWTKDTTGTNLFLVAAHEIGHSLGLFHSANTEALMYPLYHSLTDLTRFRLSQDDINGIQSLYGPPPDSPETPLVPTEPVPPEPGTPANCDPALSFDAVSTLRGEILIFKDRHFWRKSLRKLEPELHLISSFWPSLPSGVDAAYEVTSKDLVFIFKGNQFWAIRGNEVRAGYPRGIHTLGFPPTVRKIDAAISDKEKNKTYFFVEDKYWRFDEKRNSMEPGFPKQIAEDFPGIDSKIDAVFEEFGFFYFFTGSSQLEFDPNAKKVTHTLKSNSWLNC
MMP-8h, sequence (P22894 101-467): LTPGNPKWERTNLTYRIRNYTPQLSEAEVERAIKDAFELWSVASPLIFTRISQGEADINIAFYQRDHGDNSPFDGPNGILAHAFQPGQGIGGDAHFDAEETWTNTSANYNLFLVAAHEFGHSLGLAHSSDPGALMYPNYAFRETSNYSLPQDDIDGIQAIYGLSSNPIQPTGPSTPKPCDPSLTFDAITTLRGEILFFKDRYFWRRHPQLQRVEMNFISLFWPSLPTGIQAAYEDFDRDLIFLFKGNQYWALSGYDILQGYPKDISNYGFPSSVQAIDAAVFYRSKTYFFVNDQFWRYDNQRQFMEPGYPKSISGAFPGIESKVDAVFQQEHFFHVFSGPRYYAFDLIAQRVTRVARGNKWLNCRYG
MMP-10h, sequence (P09238 99-476): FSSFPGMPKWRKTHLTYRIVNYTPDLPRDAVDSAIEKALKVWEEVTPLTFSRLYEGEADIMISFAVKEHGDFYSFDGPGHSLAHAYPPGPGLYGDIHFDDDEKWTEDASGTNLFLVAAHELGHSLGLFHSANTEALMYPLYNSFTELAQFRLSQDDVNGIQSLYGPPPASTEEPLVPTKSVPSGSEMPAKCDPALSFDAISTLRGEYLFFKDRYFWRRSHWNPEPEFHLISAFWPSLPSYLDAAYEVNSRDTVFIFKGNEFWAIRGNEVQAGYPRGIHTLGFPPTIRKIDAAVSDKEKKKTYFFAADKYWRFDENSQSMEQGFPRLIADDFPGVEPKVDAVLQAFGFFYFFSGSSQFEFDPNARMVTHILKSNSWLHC
MMP-9h, sequence (P14780 94-707): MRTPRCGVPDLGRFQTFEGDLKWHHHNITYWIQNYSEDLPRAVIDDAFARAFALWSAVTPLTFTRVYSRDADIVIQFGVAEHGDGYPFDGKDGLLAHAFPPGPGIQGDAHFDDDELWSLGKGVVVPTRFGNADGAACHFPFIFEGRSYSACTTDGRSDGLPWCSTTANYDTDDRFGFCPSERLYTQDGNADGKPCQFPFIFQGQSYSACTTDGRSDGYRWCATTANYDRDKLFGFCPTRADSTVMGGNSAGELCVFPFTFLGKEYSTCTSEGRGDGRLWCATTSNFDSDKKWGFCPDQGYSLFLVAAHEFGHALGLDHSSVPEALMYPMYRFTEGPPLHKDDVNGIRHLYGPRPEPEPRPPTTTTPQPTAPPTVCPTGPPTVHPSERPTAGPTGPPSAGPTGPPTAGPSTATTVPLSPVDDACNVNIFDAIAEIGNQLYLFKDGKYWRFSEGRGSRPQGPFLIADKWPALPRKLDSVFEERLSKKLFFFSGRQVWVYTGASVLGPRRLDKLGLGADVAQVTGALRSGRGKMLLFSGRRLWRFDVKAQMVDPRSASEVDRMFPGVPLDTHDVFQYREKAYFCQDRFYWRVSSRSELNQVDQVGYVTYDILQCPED
MMP-12h, sequence (P39900 106-470): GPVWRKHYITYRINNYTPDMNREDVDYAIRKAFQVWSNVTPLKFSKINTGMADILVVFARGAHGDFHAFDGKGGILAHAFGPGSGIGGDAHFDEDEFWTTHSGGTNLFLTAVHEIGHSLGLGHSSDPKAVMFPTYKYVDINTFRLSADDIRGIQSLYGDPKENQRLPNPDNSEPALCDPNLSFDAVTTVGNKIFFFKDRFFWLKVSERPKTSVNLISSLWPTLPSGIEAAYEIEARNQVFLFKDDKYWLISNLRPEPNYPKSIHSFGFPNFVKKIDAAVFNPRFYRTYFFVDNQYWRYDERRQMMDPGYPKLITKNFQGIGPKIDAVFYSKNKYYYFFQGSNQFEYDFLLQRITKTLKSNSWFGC

| SMILES | Ki (MMP-13h) [nM] | Ki (MMP-2h) [nM] | Ki (MMP-8h) [nM] | Ki (MMP-3h) [nM] | Ki (MMP-9h) [nM] | Ki (MMP-12h) [nM] | Ki (MMP-10h) [nM] | Ki (MMP-14h) [nM] | Ki (MMP-13h; read-out: Ki MMP-13h) [nM] | Ki (MMP-2h; read-out: Ki MMP-2h) [nM] | Ki (MMP-8h; read-out: Ki MMP-8h) [nM] | Ki (MMP-3h; read-out: Ki MMP-3h) [nM] | Ki (MMP-9h; read-out: Ki MMP-9h) [nM] | Ki (MMP-12h; read-out: Ki MMP-12h) [nM] | Ki (MMP-10h; read-out: Ki MMP-10h) [nM] | Ki (MMP-14h; read-out: Ki MMP-14h) [nM] |
| --- | --- | --- | --- | --- | --- | --- | --- | --- | --- | --- | --- | --- | --- | --- | --- | --- |
| NC(=O)[C@H](CCCC(=O)O)NC(=O)[C@H](CCCC(=O)O)NC(=O)CCc1cc(-c2ccc(-c3cccc(Cl)c3)cc2)no1 [Compound 13, (S)-6-amino-5-((S)-5-carboxy-2-(3-(3-(3′-chlorobiphenyl-4-yl)isoxazol-5-yl)propanamido)pentanamido)-6-oxohexanoïque] | 91 | > 1000 | 638 | 575 | 605 | 348 | > 5000 | 553 |  |  |  |  |  |  |  |  |
| NC(=O)[C@H](CCC(=O)O)NC(=O)[C@H](CCC(=O)O)NC(=O)CCc1ccc(-c2cccc(Cl)c2)cc1 [Compound 57, (S)-5-amino-4-((S)-4-carboxy-2-(3-(3′-chlorobiphenyl-4-yl)propanamido)butanamido)-5-oxopentanoic acid] |  |  |  |  |  |  |  |  | > 5000 | > 1000 | > 1000 | > 10000 | > 1000 | 57 | > 5000 | > 10000 |
| Cc1nc(-c2ccc(CCC(=O)N[C@@H](CCC(=O)O)C(=O)N[C@@H](CCC(=O)O)C(N)=O)cc2)no1 [Compound 34, (S)-5-amino-4-((S)-4-carboxy-2-(3-(4-(5-methyl-1,2,4-oxadiazol-3-yl)phenyl)propanamido)butanamido)-5-oxopentanoic acid] |  |  |  |  |  |  |  |  | > 1000 | > 5000 | > 1000 | > 1000 | > 5000 | 887 | > 1000 | > 1000 |
| CC(C)C[C@H](NC(=O)[C@H](CCC(=O)O)NC(=O)CCc1ccc(-c2ccc(-c3ccccc3)cc2)cc1)C(N)=O [Compound 69, (S)-5-((S)-1-amino-4-methyl-1-oxopentan-2-ylamino)-4-(3-(4′-phenylbiphenyl-4-yl)propanamido)-5-oxopentanoic acid] |  |  |  |  |  |  |  |  | 81 | 332 | 567 | 258 | > 1000 | 7.8 | 382 | > 5000 |
| O=C(O)CC[C@H](NC(=O)CCc1ccc(-c2ccc(-c3ccccc3)cc2)cc1)C(=O)N1CCC[C@@H](CC(=O)O)C1 [Compound 70, (S)-5-((S)-3-(carboxymethyl)piperidin-1-yl)-4-(3-(4′-phenylbiphenyl-4-yl)propanamido)-5-oxopentanoic acid] |  |  |  |  |  |  |  |  | 17 | 12 | 105 | 231 | > 5000 | 4.7 | 421 | > 1000 |
| NC(=O)[C@H](CCC(=O)O)NC(=O)[C@H](CCC(=O)O)NC(=O)CCc1ccc(-c2cccc([N+](=O)[O-])c2)cc1 [Compound 55, (S)-5-amino-4-((S)-4-carboxy-2-(3-(3′-nitrobiphenyl-4-yl)propanamido)butanamido)-5-oxopentanoic acid] | 436 | > 1000 | > 1000 | 878 | 685 | 73 | > 1000 | > 5000 |  |  |  |  |  |  |  |  |
| NCCCC[C@H](NC(=O)[C@H](CCC(=O)O)NC(=O)CCc1ccc(-c2ccc(-c3ccccc3)cc2)cc1)C(N)=O [Compound 63, (S)-5-((S)-1,6-diamino-1-oxohexan-2-ylamino)-4-(3-(4′-phenylbiphenyl-4-yl)propanamido)-5-oxopentanoic acid] |  |  |  |  |  |  |  |  | 55 | 110 | 621 | > 1000 | > 1000 | 14.3 | 447 | > 1000 |
| NC(=O)[C@H](Cc1c[nH]cn1)NC(=O)[C@H](CCC(=O)O)NC(=O)CCc1ccc(-c2ccc(-c3ccccc3)cc2)cc1 [Compound 67, (S)-5-((S)-1-amino-3-(1H-imidazol-4-yl)-1-oxopropan-2-ylamino)-4-(3-(4′-phenylbiphenyl-4-yl)propanamido)-5-oxopentanoic acid] |  |  |  |  |  |  |  |  | 36 | 68 | 526 | 337 | > 1000 | 10.2 | 168 | > 1000 |
| CC(C)C[C@H](NC(=O)CCc1ccc(-c2ccc(-c3ccccc3)cc2)cc1)C(=O)N[C@@H](CCC(=O)O)C(N)=O [Compound 79, (S)-5-amino-4-((S)-4-methyl-2-(3-(4′-phenylbiphenyl-4-yl)propanamido)pentanamido)-5-oxopentanoic acid] |  |  |  |  |  |  |  |  | 443 | > 1000 | > 1000 | 203 | > 100000 | > 1000 | > 1000 | > 10000 |
| NC(=O)CC[C@H](NC(=O)[C@H](CCC(N)=O)NC(=O)CCc1cc(-c2ccc(-c3ccccc3)cc2)no1)C(N)=O [Compound 22, (S)-2-(3-(3-(biphenyl-4-yl)isoxazol-5-yl)propanamido)-N^1-((S)-1,5-diamino-1,5-dioxopentan-2-yl)pentanediamide] |  |  |  |  |  |  |  |  | 436 | > 1000 | > 1000 | > 10000 | > 1000 | 830 | > 10000 | > 10000 |
| NC(=O)[C@H](CCC(=O)O)NC(=O)[C@H](CCC(=O)O)NC(=O)CCc1ccc(-n2cccc2)cc1 [Compound 36, (S)-4-(3-(4-(1H-pyrrol-1-yl)phenyl)propanamido)-5-((S)-1-amino-4-carboxy-1-oxobutan-2-ylamino)-5-oxopentanoic acid] | > 1000 | > 1000 | 373 | > 1000 | > 1000 | 59 | > 1000 | > 5000 |  |  |  |  |  |  |  |  |
| O=C(O)CC[C@H](NC(=O)CCc1ccc(-c2cccs2)cc1)C(=O)Nc1cccc(CC(=O)O)c1 [Compound 90, (S)-5-(3-(carboxymethyl)phenylamino)-5-oxo-4-(3-(4-(thiophen-2-yl)phenyl)propanamido)pentanoic acid] |  |  |  |  |  |  |  |  | 366 | 116 | 18 | > 1000 | 284 | 8 | 143 | 430 |
| NC(=O)[C@H](CCC(=O)O)NC(=O)[C@H](CCC(=O)O)NC(=O)CCc1cc(-c2ccc(-c3ccccc3)cc2)no1 [Compound 16, (S)-5-amino-4-((S)-2-(3-(3-(biphenyl-4-yl)isoxazol-5-yl)propanamido)-4-carboxybutanamido)-5-oxopentanoic acid] | 60 | 83 | 383 | 78 | > 1000 | 3.4 | 114 | > 1000 |  |  |  |  |  |  |  |  |
| NC(=O)[C@@H](CCC(=O)O)NC(=O)[C@@H](CCC(=O)O)NC(=O)CCc1cc(-c2ccc(-c3cccc(Cl)c3)cc2)no1 [Compound 7, (R)-5-amino-4-((R)-4-carboxy-2-(3-(3-(3′-chlorobiphenyl-4-yl)isoxazol-5-yl)propanamido)butanamido)-5-oxopentanoic acid] |  |  |  |  |  |  |  |  | 114 | 538 | > 1000 | 897 | > 5000 | 268 | 111 | > 10000 |
| NCCCC[C@H](NC(=O)[C@H](CCC(=O)O)NC(=O)CCc1ccc(-c2ccccc2)cc1)C(N)=O [Compound 44, (S)-4-(3-(biphenyl-4-yl)propanamido)-5-((S)-1,6-diamino-1-oxohexan-2-ylamino)-5-oxopentanoic acid] |  |  |  |  |  |  |  |  | > 1000 | > 1000 | 414 | > 10000 | > 5000 | 119 | > 5000 | > 5000 |
| Cn1ccc(-c2ccc(CCC(=O)N[C@@H](CCC(=O)O)C(=O)N[C@@H](CCC(=O)O)C(N)=O)cc2)n1 [Compound 33, (S)-5-amino-4-((S)-4-carboxy-2-(3-(4-(1-methyl-1H-pyrazol-3-yl)phenyl)propanamido)butanamido)-5-oxopentanoic acid] |  |  |  |  |  |  |  |  | 518 | > 1000 | > 1000 | > 10000 | > 1000 | 797 | > 10000 | > 1000 |
| NC(=O)[C@H](CCC(=O)O)NC(=O)[C@H](Cc1cnc[nH]1)NC(=O)CCc1ccc(-c2cc(-c3ccccc3)cs2)cc1 [Compound 104, (S)-4-((S)-3-(1H-imidazol-5-yl)-2-(3-(4-(4-phenylthiophen-2-yl)phenyl)propanamido)propanamido)-5-amino-5-oxopentanoic acid] |  |  |  |  |  |  |  |  | > 1000 | > 5000 | > 1000 | > 10000 | > 5000 | 40 | > 5000 | > 5000 |
| NC(=O)[C@H](CC(=O)O)NC(=O)[C@H](CC(=O)O)NC(=O)CCc1cc(-c2ccc(-c3ccccc3)cc2)no1 [Compound 19, (S)-4-amino-3-((S)-2-(3-(3-(biphenyl-4-yl)isoxazol-5-yl)propanamido)-3-carboxypropanamido)-4-oxobutanoic acid] |  |  |  |  |  |  |  |  | 24 | 52 | > 1000 | 750 | > 1000 | 54 | 527 | > 1000 |
